Assay results published in patent publication US10214507B2, “Carbazole-containing amides, carbamates, and ureas as cryptochrome modulators” (Reset Therapeutics, Inc., priority 2014, dated 2019).

The molecules below were run on stable U20S reporter cells harboring Per2-dLuc (assay: Per2 assay for evaluating the potency of test compounds (circadian luciferase reporter)). Conditions: amplitude of Per2-dLuc luminescence vs log concentration.
Format: cell-based
Method in brief: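 U2OS Per2-dLuc cells grown 48 h at 37 °C, then synchronized with 5 μM forskolin plus 1 mM luciferin and dosed with 3-fold compound dilutions.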
`O=C1N(CC(O)Cn2c3ccccc3c3ccccc32)CCN1C1CCC1` (centres unmarked) [Compound 96, 1-(3-(9H-carbazol-9-yl)-2-hydroxypropyl)-3-cyclobutylimidazolidin-2-one] gave an EC50 of 493 nM. Molecule `O=C1N(CC(O)Cn2c3ccc(F)cc3c3cc(F)ccc32)CCCC1(F)F` (centres unmarked) [Compound 13, 1-(3-(3,6-difluoro-9H-carbazol-9-yl)-2-hydroxypropyl)-3,3-difluoropiperidin-2-one] has an EC50 of 288 nM. `CCC1CC(=O)N(CC(O)Cn2c3ccc(F)cc3c3cc(F)ccc32)C1` (centres unmarked) [Compound 45, 1-(3-(3,6-difluoro-9H-carbazol-9-yl)-2-hydroxypropyl)-4-ethylpyrrolidin-2-one] showed an EC50 of 52 nM. In the case of `CC(O)(CN1CCC(F)(F)C1=O)Cn1c2ccc(F)cc2c2cc(F)ccc21` (centres unmarked) [Compound 59, 1-(3-(3,6-difluoro-9H-carbazol-9-yl)-2-hydroxy-2-methylpropyl)-3,3-difluoropyrrolidin-2-one], the EC50 is reported as 986 nM. Molecule `CC1CCN(CC(O)Cn2c3ccc(F)cc3c3cc(F)ccc32)C1=O` (centres unmarked) [Compound 29, 1-(3-(3,6-difluoro-9H-carbazol-9-yl)-2-hydroxypropyl)-3-methylpyrrolidin-2-one] has an EC50 of 422 nM. Work on `CC1CCC(=O)N1CC(O)Cn1c2ccc(F)cc2c2cc(F)ccc21` (centres unmarked) [Compound 34, 1-(3-(3,6-difluoro-9H-carbazol-9-yl)-2-hydroxypropyl)-5-methylpyrrolidin-2-one] yielded an EC50 of 286 nM. Work on `CC(C)N1CCCN(CC(O)Cn2c3ccc(F)cc3c3cc(F)ccc32)C1=O` (centres unmarked) [Compound 77, 1-(3-(3,6-difluoro-9H-carbazol-9-yl)-2-hydroxypropyl)-3-isopropyltetrahydropyrimidin-2(1H)-one] yielded an EC50 of 620 nM. Work on `CCC1CCN(CC(O)Cn2c3ccc(F)cc3c3cc(F)ccc32)C1=O` (centres unmarked) [Compound 17, 1-(3-(3,6-difluoro-9H-carbazol-9-yl)-2-hydroxypropyl)-3-ethylpyrrolidin-2-one] yielded an EC50 of 417 nM. With `O=C1[C@H]2CC[C@H](C2)N1C[C@@H](O)Cn1c2ccccc2c2ccccc21` [Compound 108, (1R,4S)-2-((S)-3-(9H-carbazol-9-yl)-2-hydroxypropyl)-2-azabicyclo[2.2.1]heptan-3-one] the EC50 was 750 nM. `O=C1C(F)CCCN1CC(O)Cn1c2ccccc2c2ccccc21` (centres unmarked) [Compound 70, 1-(3-(9H-carbazol-9-yl)-2-hydroxypropyl)-3-fluoropiperidin-2-one] gave an EC50 of 61 nM. `O=C1N(CC(O)Cn2c3ccc(F)cc3c3cc(F)ccc32)CCN1c1ccccc1` (centres unmarked) [Compound 89, 1-(3-(3,6-difluoro-9H-carbazol-9-yl)-2-hydroxypropyl)-3-phenylimidazolidin-2-one] showed an EC50 of 438 nM. Molecule `C[C@@H]1CCC(=O)N1C[C@@H](O)Cn1c2ccccc2c2ccccc21` [Compound 113, (R)-1-((S)-3-(9H-carbazol-9-yl)-2-hydroxypropyl)-5-methylpyrrolidin-2-one] has an EC50 of 948 nM. With `COC1CCCN(CC(O)Cn2c3ccccc3c3ccccc32)C1=O` (centres unmarked) [Compound 60, 1-(3-(9H-carbazol-9-yl)-2-hydroxypropyl)-3-methoxypiperidin-2-one] the EC50 was 331 nM. `CC1CCCN(CC(C)(O)Cn2c3ccc(F)cc3c3cc(F)ccc32)C1=O` (centres unmarked) [Compound 28, 1-(3-(3,6-difluoro-9H-carbazol-9-yl)-2-hydroxy-2-methylpropyl)-3-methylpiperidin-2-one] showed an EC50 of 824 nM. `CCN1CCN(CC(O)Cn2c3ccc(F)cc3c3cc(F)ccc32)C1=O` (centres unmarked) [Compound 73, 1-(3-(3,6-difluoro-9H-carbazol-9-yl)-2-hydroxypropyl)-3-ethylimidazolidin-2-one] was tested, and the EC50 was 1110 nM. With `CC1CCCN(CC(O)Cn2c3ccccc3c3ccccc32)C1=O` (centres unmarked) [Compound 64, 1-(3-(9H-carbazol-9-yl)-2-hydroxypropyl)-3-methylpiperidin-2-one] the EC50 was 462 nM. With `O=C1C(C2CCC2)CCCN1CC(O)Cn1c2ccc(F)cc2c2cc(F)ccc21` (centres unmarked) [Compound 51, 3-cyclobutyl-1-(3-(3,6-difluoro-9H-carbazol-9-yl)-2-hydroxypropyl)piperidin-2-one] the EC50 was 265 nM.
